Columns and labels:
[1] = DrugBank DB05076; cited from earlier work
[2] = system: CD-1 IGS mice; assay: Toxicology: serum and blood chemistry, complete blood count; format: in vivo, mouse
Procedure: Both arms were dosed via intravenous tail-vein injected at 0.23 mg/kg with a 4 mL/kg dose volume. The EV-fenretinide formulation was stored at −80° C. until injection into mice. Blood was collected at 2, 5, 10, 15, 30, 60, 120, 240, and 960 minutes, three mice were sacrificed at each time point, and tissue was collected at 30, 120 and 960 minutes. Spleen, liver, lung, kidney, brain and heart tissues were collected. Fenretinide amount in blood and tissue was measured via LC MS/MS mass spectrometry. Serum and hematology toxicology measurements were collected from the blood samples. Blood urea nitrogen (BUN), creatinine, and alanine aminotransferase were measured from serum.
Fenretinide-EVs and fenretinide-alone formulations were produced and dosed in the animal model as in Example 6. On the terminal blood draw of each animal, 20 μL of whole blood samples were used to measure complete blood count (CBC) on the Veterinary Hematology Analyzer (Hematrue, Heska).

[3] = CellTiter-Huor Cell Viability Assay; format: cell-based; settings: human, ARPE-19 retinal pigment epithelium cells, read-out: cell viability or growth of untreated control
Procedure: EV-fenretinide was packaged and purified in a manner similar to the protocol described in Example 1. The extracellular vesicles used for packaging fenretinide was isolated from HEK293-F cells. A human retinal pigment epithelium (RPE) cell line, ARPE-19 (ATCC® CRL-2302™), isolated from normal eyes of an adult […], is treated with fenretinide alone or fenretinide-EV to examine the effect on viability of retinal pigment epithelium cells. ARPE-19 cells plated the night before were treated with fenretinide (resuspended in 100% DMSO) or fenretinide-EV (in PBS) at matched concentration of drug substance (active pharmaceutical ingredient (API)) dosed at either low (0.94 μM) or high (15 μM) fenretinide concentration. After 48 hrs at 37° C. in a humidified 5% CO2 incubator, cell viability is measured using CellTiter-Huor™ Cell Viability Assay (Promega) following the manufacturer's instructions to detect viable cells based on cell membrane integrity using a fluorogenic, cell-permeant, peptide substrate (Gly-Phe-AFC) which is cleaved to a fluorescent signal following entry into intact cells. The plate was read on plate reader at 380-400 nm excitation and —505 nm emission for live-cell fluorescence readout.

[4] = cited from earlier work
[5] = system: MCF-7 breast cancer cells; assay: CellTiter-Glo Luminescent Cell Viability Assay; format: cell-based, human
Procedure: EV-fenretinide was packaged in a manner similar to the protocol described in Example 2. EV-fenretinide was dosed onto MCF-7 breast cancer cells using the exemplary protocol below. Cell viability was measured using the Promega CellTiter-Glo® Luminescent Cell Viability Assay—a method of determining the number of viable cells in culture based on quantitation of the ATP present, an indicator of metabolically active cells.
Protocol steps: • 1. MCF-7 cells were cultured in Dulbecco's Modified Eagle's Medium (DMEM) supplemented with 10% exosome-free fetal bovine serum (FBS) supplemented with penicillin-streptomycin-glutamine (PSG; 100 units/mL penicillin, 100 μg/mL streptomycin and 2 mM L-glutamine) for 1-2 passages. • 2. MCF-7 cells were harvested, washed, counted and resuspended in culture medium (DMEM supplemented with 10% exosome-free FBS and PSG) at 5E5 cells/mL. • 3. The MCF-7 cells were seeded at 5E4 cells in a volume of 100 μL/well of culture medium in a white polystyrene 96-well tissue culture plate and incubated for 18-20 hrs at 37° C./5% CO2 humidified incubator. • 4. After 18-20 hrs of incubation, medium was removed from the wells and replaced with culture medium containing test agents. […] The plate was shaken for two minutes and then left to equilibrate for 10 minutes prior to reading the luminescence on a microplate reader (iD3-Molecular Devices).

[6] = Retention and biodistribution of fenretinide in eye after intravitreal injection; format: in vivo, brown Norway rat; settings: 24-hrs after intravitreal 5 μL per eye; 94.8 uM fenretinide-EV or 90.9 uM fenretinide alone
Procedure: Eye biodistribution of fenretinide formulated as 90.9 uM free fenretinide (excipient: 5% Ethanol, 12.5% Solutol-HS 15, 12.5% PEG 300, and 70% PBS) or 94.8 uM fenretinide-EV (in PBS) is administered to each eye of brown Norway rat (6 rats/treatment condition) by intravitreal injection (5 μL per eye). 24-hrs after administration, eyes were enucleated. Individual tissues were collected corresponding to cornea, conjunctiva, lens, vitreous humor, retina, RPE/choroid and sclera and analyzed for fenretinide content. In addition, total fenretinide content in each eye was also determined.

SMILES	logP [1]	decrease in PLT (platelet concentration) versus Charles River general levels ([2]; 16 hrs after intravenous 0.2288 mg/kg)	adverse effects based on serum and blood chemistry results ([2]; intravenous 0.23 mg/kg)	viability at 48 h, 0.94 μM ([3]; ARPE-19, 0.94 μM fenretinide equivalent)	viability at 48 h, 15 μM ([3]; ARPE-19, 15 μM fenretinide equivalent)	solubility limit in water ([4]; water)	viability at 40 µM ([5]; Homo sapiens, MCF7, MCF-7, 40 μM fenretinide, 48 hours)	effect on cell viability over concentration ([5]; MCF-7, 0.625-40 μM, most notable after about 10 μM)	percentage of fenretinide remaining in eyes [6]	solubility in water ([4]; Selleck Chem catalog)
CC1=C(/C=C/C(C)=C/C=C/C(C)=C/C(=O)Nc2ccc(O)cc2)C(C)(C)CCC1 [Fenretinide, N[4-hydroxyphenyl]retinamide]	greater than 6	5 fold	did not exert apparent adverse effects	85.5%	31%	about 1.71 μg/mL	~20%	dose-dependent cell viability inhibition	7%	–
Cc1nc(Nc2ncc(C(=O)Nc3c(C)cccc3Cl)s2)cc(N2CCN(CCO)CC2)n1 [dasatinib]	–	–	–	–	–	–	–	–	–	insoluble in water

— patent US20220323412A1, “EXTRACELLULAR VESICLE-FENRETINIDE COMPOSITIONS, EXTRACELLULAR VESICLE-C-KIT INHIBITOR COMPOSITIONS, METHODS OF MAKING AND USES THEREOF” (priority 2020, published 2022)
